The NIST ThermoML archive (doi:10.1016/j.jct.2011.02.018)
Numbers after ± are expanded uncertainties.

Experiment: xn = mol fraction of the nth substance listed
Details: 101 kPa, Liquid; for viscosity: Concentric cylinders viscometry; for mass density: Vibrating tube method

COC(C)(C)C [2-methoxy-2-methylpropane] + CCCO
Details	mass density, 293.15 K [kg/m3]	mass density, 298.15 K [kg/m3]	mass density, 303.15 K [kg/m3]	mass density, 308.15 K [kg/m3]	viscosity, 293.15 K [mPa·s]	viscosity, 298.15 K [mPa·s]	viscosity, 303.15 K [mPa·s]	viscosity, 308.15 K [mPa·s]
x1 = 0.0126	802.92 ± 0.24	798.92 ± 0.24	794.86 ± 0.24	790.76 ± 0.24	2.139 ± 0.088	1.886 ± 0.077	1.676 ± 0.069	1.494 ± 0.061
x1 = 0.0219	802.2 ± 0.24	798.21 ± 0.24	794.13 ± 0.24	790.02 ± 0.24	2.069 ± 0.085	1.832 ± 0.075	1.631 ± 0.067	1.456 ± 0.059
x1 = 0.0298	801.64 ± 0.24	797.61 ± 0.24	793.53 ± 0.24	789.4 ± 0.24	2.014 ± 0.082	1.79 ± 0.073	1.594 ± 0.065	1.424 ± 0.058
x1 = 0.0403	800.81 ± 0.24	796.7 ± 0.24	792.61 ± 0.24	788.45 ± 0.24	1.948 ± 0.08	1.735 ± 0.071	1.548 ± 0.063	1.386 ± 0.057
x1 = 0.05	800.12 ± 0.24	796.03 ± 0.24	791.93 ± 0.24	787.77 ± 0.24	1.885 ± 0.077	1.683 ± 0.069	1.502 ± 0.061	1.347 ± 0.055
x1 = 0.0599	799.4 ± 0.24	795.34 ± 0.24	791.21 ± 0.24	787.04 ± 0.24	1.835 ± 0.075	1.635 ± 0.067	1.462 ± 0.06	1.309 ± 0.053
x1 = 0.0699	798.72 ± 0.24	794.62 ± 0.24	790.47 ± 0.24	786.28 ± 0.24	1.78 ± 0.072	1.589 ± 0.065	1.429 ± 0.058	1.276 ± 0.052
x1 = 0.0798	798.25 ± 0.24	794.12 ± 0.24	789.92 ± 0.24	785.72 ± 0.24	1.736 ± 0.071	1.552 ± 0.063	1.391 ± 0.057	1.252 ± 0.051
x1 = 0.09	797.26 ± 0.24	793.05 ± 0.24	788.85 ± 0.24	784.63 ± 0.24	1.67 ± 0.068	1.492 ± 0.061	1.338 ± 0.055	1.203 ± 0.049
x1 = 0.1003	796.41 ± 0.24	792.28 ± 0.24	788.08 ± 0.24	783.85 ± 0.24	1.627 ± 0.066	1.459 ± 0.059	1.301 ± 0.053	1.181 ± 0.048
x1 = 0.1495	793.03 ± 0.24	788.85 ± 0.24	784.61 ± 0.24	780.3 ± 0.24	1.412 ± 0.058	1.275 ± 0.052	1.151 ± 0.047	1.042 ± 0.043
x1 = 0.1999	789.56 ± 0.24	785.28 ± 0.24	780.94 ± 0.24	776.55 ± 0.24	1.234 ± 0.05	1.119 ± 0.046	1.016 ± 0.042	0.9225 ± 0.038
x1 = 0.25	786.15 ± 0.24	781.8 ± 0.24	777.38 ± 0.24	772.92 ± 0.24	1.089 ± 0.044	0.9917 ± 0.041	0.9045 ± 0.037	0.8231 ± 0.034
x1 = 0.3003	782.74 ± 0.24	778.33 ± 0.24	773.84 ± 0.24	769.32 ± 0.24	0.9663 ± 0.04	0.8841 ± 0.036	0.809 ± 0.033	0.7398 ± 0.03
x1 = 0.35	779.47 ± 0.24	774.99 ± 0.24	770.45 ± 0.24	765.85 ± 0.24	0.8694 ± 0.036	0.7946 ± 0.032	0.7291 ± 0.03	0.6694 ± 0.028
x1 = 0.4015	776.15 ± 0.24	771.6 ± 0.24	766.99 ± 0.24	762.32 ± 0.24	0.7809 ± 0.032	0.721 ± 0.029	0.6608 ± 0.027	0.6082 ± 0.025
x1 = 0.4585	772.51 ± 0.24	767.88 ± 0.24	763.21 ± 0.24	758.45 ± 0.24	0.6993 ± 0.029	0.6452 ± 0.026	0.5966 ± 0.025	0.5495 ± 0.023
x1 = 0.5002	769.91 ± 0.24	765.22 ± 0.24	760.49 ± 0.24	755.68 ± 0.24	0.6508 ± 0.027	0.6047 ± 0.025	0.5568 ± 0.023	0.5119 ± 0.021
x1 = 0.5505	766.88 ± 0.24	762.1 ± 0.24	757.3 ± 0.24	752.42 ± 0.24	0.5953 ± 0.025	0.5528 ± 0.023	0.5121 ± 0.021	0.4715 ± 0.019
x1 = 0.5994	763.94 ± 0.24	759.14 ± 0.24	754.28 ± 0.24	749.34 ± 0.24	0.5508 ± 0.023	0.52 ± 0.022	0.4831 ± 0.02	0.4457 ± 0.018
x1 = 0.6475	761.06 ± 0.24	756.21 ± 0.24	751.27 ± 0.24	746.28 ± 0.24	0.5181 ± 0.021	0.4813 ± 0.02	0.4499 ± 0.019	0.4153 ± 0.017
x1 = 0.7026	757.85 ± 0.24	752.93 ± 0.24	747.92 ± 0.24	742.86 ± 0.24	0.4767 ± 0.02	0.4449 ± 0.018	0.4145 ± 0.017	0.3818 ± 0.016
x1 = 0.7536	754.92 ± 0.24	749.92 ± 0.24	744.86 ± 0.24	739.74 ± 0.24	0.4509 ± 0.019	0.4165 ± 0.017	0.3944 ± 0.017	0.3602 ± 0.015
x1 = 0.8033	752.01 ± 0.24	747.01 ± 0.24	741.89 ± 0.24	736.72 ± 0.24	0.4202 ± 0.017	0.3922 ± 0.016	0.3655 ± 0.015	0.3345 ± 0.014
x1 = 0.8471	749.51 ± 0.24	744.41 ± 0.24	739.24 ± 0.24	734.04 ± 0.24	0.4014 ± 0.017	0.375 ± 0.016	0.3506 ± 0.015	0.3255 ± 0.014
x1 = 0.9007	746.4 ± 0.24	741.27 ± 0.24	736.06 ± 0.24	730.79 ± 0.24	0.3802 ± 0.016	0.3537 ± 0.015	0.3303 ± 0.014	0.308 ± 0.013
x1 = 0.9107	745.77 ± 0.24	740.64 ± 0.24	735.41 ± 0.24	730.13 ± 0.24	0.3705 ± 0.016	0.3499 ± 0.015	0.3277 ± 0.014	0.302 ± 0.013
x1 = 0.9185	745.32 ± 0.24	740.18 ± 0.24	734.94 ± 0.24	729.65 ± 0.24	0.3679 ± 0.015	0.3536 ± 0.015	0.3317 ± 0.014	0.3014 ± 0.013
x1 = 0.9282	744.76 ± 0.24	739.61 ± 0.24	734.37 ± 0.24	729.07 ± 0.24	0.3645 ± 0.015	0.3411 ± 0.014	0.3205 ± 0.014	0.2934 ± 0.013
x1 = 0.94	744.07 ± 0.24	738.91 ± 0.24	733.65 ± 0.24	728.34 ± 0.24	0.3597 ± 0.015	0.3383 ± 0.014	0.3153 ± 0.013	0.295 ± 0.013
x1 = 0.9493	743.55 ± 0.24	738.35 ± 0.24	733.09 ± 0.24	727.78 ± 0.24	0.3573 ± 0.015	0.3241 ± 0.014	0.3106 ± 0.013	0.2879 ± 0.012
x1 = 0.9599	742.94 ± 0.24	737.74 ± 0.24	732.47 ± 0.24	727.15 ± 0.24	0.3554 ± 0.015	0.3246 ± 0.014	0.3102 ± 0.013	0.2939 ± 0.013
x1 = 0.9698	742.37 ± 0.24	737.19 ± 0.24	731.91 ± 0.24	726.58 ± 0.24	0.349 ± 0.015	0.329 ± 0.014	0.3092 ± 0.013	0.2843 ± 0.012
x1 = 0.9796	741.82 ± 0.24	736.64 ± 0.24	731.35 ± 0.24	726.01 ± 0.24	0.3454 ± 0.015	0.3252 ± 0.014	0.3054 ± 0.013	0.2803 ± 0.012
x1 = 0.9882	741.32 ± 0.24	736.14 ± 0.24	730.84 ± 0.24	725.49 ± 0.24	0.344 ± 0.015	0.3242 ± 0.014	0.3046 ± 0.013	0.2819 ± 0.012
